Where a name gives a salt, the structure may show the parent alone.
How the values were obtained:
HO-1 = HO-1 expression in colonic tissue during DSS-colitis (Western blot, semi-quantitative PCR); type: in vivo, C57BL/6 mice; conditions: CoPP 5 mg/kg i.p. daily, entire 7 day period
Method: Western Blot Analysis. Tissue samples from the distal colon of the animals were removed and snap frozen with liquid nitrogen. The frozen tissue was ground thoroughly and homogenized in Ripa buffer supplemented with proteinase inhibitors. The protein concentration was determined by the Bio-Rad Dc Protein Assay™ according manufacturers instructions (Bio-Rad, Hercules, Calif.). Electrophoresis was performed under denaturing conditions according to Laemmli with 10% polyacrylamide gels by loading 35 μg protein. Proteins were transferred onto a polyvinyldifluoridine membrane (Immobilon P™; Millipore, Bedford, Mass.) by electroblotting. Proteins were then detected with rabbit polyclonal antibodies directed against human HO-1 (StressGen, Victoria, Canada) or β-tubulin (Boehringer Mannheim, Mannheim, Germany). Proteins were visualized using HRP-conjugated donkey anti-rabbit IgG or goat anti-mouse IgG (Pierce) and the ECL assay (Amersham Life Science, Arlington Heights, Ill.), according to manufacturer's instructions.
Semi-Quantitative PCR. RNA was extracted using RNeasy Mini Kits (Qiagen Inc., CA, USA) and reverse transcribed into cDNA with the RNA PCR Kit (TaKaRa, PanVera, Madison, Wis., USA). […] PCR products (10-20 μl) were analyzed in an ethidium bromide-stained 1% agarose gel.

NF-κB = test: EMSA of nuclear extracts, NF-κB DNA binding; type: cell-based; conditions: Jurkat T cells, PMA plus ionomycin, 100 μM biliverdin
Method: Nuclear protein extraction and electrophoretic mobility shift assay (EMSA). Jurkat T cells were cultured in 10% FCS supplemented RPMI 1640 with 50 nM phorbol myristyl acetate (PMA) and 2 μM ionomycin (both reagents from ICN Biomedicals) in the presence or absence of 100 μM biliverdin. Following 0, 2, and 4 hrs of stimulation, cells (30×10^6 cells for each group at each time points) were collected, washed twice with PBS, and pelleted. Nuclear and cytoplasmic extracts were prepared according to a modified Shapiro's method (Shapiro et al., DNA 7(1):47-55, 1988). Protein concentrations were determined by the Bradford assay. The following oligonucleotides (Invitrogen, Calsbad, Calif.) were used for EMSA:
NF-κB, (coding) 5′-[…]-3′ (SEQ ID NO:7),
(non-coding) 5′-[…]-[…]-3′ (SEQ ID NO:8).
Oligonucleotides were radioactively labeled with [^32P] ATP. The EMSA reactions were assembled as previously described (Usheva et al., Proc. Natl. Acad. Sci. USA 93(24):13571-6, 1996). Digital images from the EMSA radiographs were obtained using an image scanner.

[1] = test system: LPS-induced lung inflammation; test: Endotoxic shock (LPS) model, bronchoalveolar lavage; type: in vivo, Sprague-Dawley rats; conditions: BAL 24 hours after LPS
Method: Treatment Protocol. Endotoxin (lipopolysaccharide/LPS; Sigma; E. coli serotype 0128:B7; 3 mg/kg, i.v.) was administered to male Sprague-Dawley, resulting in an acute non-lethal inflammation. In rats, a sublethal dose of LPS results in a moderate lung inflammation characterized by neutrophil accumulation and protein accumulation in the airspace, both markers of lung inflammation. The pro-inflammatory cytokine TNF-alpha increases very rapidly in the serum, peaking by 60-90 minutes. This is followed by increases in IL-10, a prototypical anti-inflammatory cytokine that peaks 8-12 hr later.
Administration of Biliverdin. Biliverdin (Frontier Scientific: prepared in PBS following solubilization in NaOH) was administered i.p. at […] 17 hours prior to, one hour prior to, and eight hours after LPS administration.
Bronchoalveolar Lavage. A bronchoalveolar lavage (BAL) was performed 24 hours after LPS administration. Serum cytokines were measured using commercially available ELISA kits (R&D Systems Inc.) per the manufacturer's instructions. Total protein was determined via a standard Bradford assay based on a standard curve. […] Total cell count was determined as well as differential analysis of cell type and morphology via Diff-Quik® Fixative (American Scientific Products) staining of a sample of the lavagate.

SITx recipients = test: Animal survival after SITx with 6 hours cold preservation; type: in vivo, LEW rats; conditions: 14 days follow-up; 8/8; saline control 57.1%
Method: Small Intestinal Transplantation. Orthotopic small intestinal transplantation (SITx) was performed in syngeneic Lewis rats. SITx with caval drainage was performed using a previously described procedure (Murase et al., in Handbook of Animal Models in Transplantation Research, Cramer et al., Eds. CRC Press, Boca Raton, Fla., pp. 203-213 (1994)). […] The graft was perfused via the aortic segment with 5 ml chilled Ringer's lactate solution, and the intestinal lumen was irrigated with 20 ml of cold saline solution containing 0.5% neomycin-sulfate (Sigma, St. Louis, Mo.). End-to-side anastomoses between the graft aorta and the recipient infrarenal aorta, and between the graft portal vein and recipient vena cava, were performed with 10-0 Novafil™ suture. […] The entire recipient intestine was removed and the enteric continuity was restored by proximal and distal end-to-end intestinal anastomoses. Recipient animals were given 20 mg/day prophylactic cefamandole nafate for 3 postoperative days. Transplanted recipients were given water 3 hours after surgery, and were fed 24 hours after surgery.
Animal survival. Six hours of cold preservation in UW of the intestinal graft induced intestinal dysfunction in untreated recipients; 3 out of 14 control animals died within 24 hours and an additional 3 animals died 5 and 7 days after SITx due to bowel obstruction secondarily to intestinal I/R injury. […]

Compound	HO-1 protein in the intestine (HO-1)	DNA binding of NF-κB (NF-κB)	neutrophil accumulation in the airspace [1]	protein accumulation in the airspace [1]	overall animal survival (SITx recipients)
C=CC1=C(C)c2cc3[n-]c(cc4nc(cc5[n-]c(cc1n2)c(C)c5CCC(=O)[O-])C(CCC(=O)[O-])=C4C)c(C)c3C=C.[Co+2].[H+].[H+] [CoPP, Cobalt protoporphyrin]	consistently high levels of HO-1 protein	–	–	–	–
C=CC1=C(C)/C(=C/C2=NC(=C\c3[nH]c(/C=C4\NC(=O)C(C)=C4C=C)c(C)c3CCC(=O)O)/C(CCC(=O)O)=C2C)NC1=O [biliverdin, biliverdin dihydrochloride]	–	inhibited DNA binding	reduced	reduced	100%

Source: patent US8097585B2, “Methods of treating inflammation by administration of heme oxygenase-1 and products of heme degradation” (priority 2002, dated 2012)
